Target: T1, MenA (Mycobacterium tuberculosis, UniProt P9WIP3)
T1 sequence (P9WIP3 1-292): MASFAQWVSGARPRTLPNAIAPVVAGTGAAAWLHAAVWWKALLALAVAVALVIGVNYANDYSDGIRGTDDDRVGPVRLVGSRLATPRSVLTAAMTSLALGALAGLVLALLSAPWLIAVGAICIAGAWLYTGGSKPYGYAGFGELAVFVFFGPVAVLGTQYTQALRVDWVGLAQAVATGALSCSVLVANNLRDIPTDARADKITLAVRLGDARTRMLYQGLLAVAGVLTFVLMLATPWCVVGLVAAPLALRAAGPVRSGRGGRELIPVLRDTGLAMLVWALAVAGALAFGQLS
Format: biochemical

Work on C=CCN(C)CCCCCCOc1ccc(C(=O)c2ccc(Br)cc2)c(F)c1 [Ro 48-8071] yielded an IC50 of 9 µM.
